Source: US7989650B2, “Therapeutic delivery of carbon monoxide to extracorporeal and isolated organs” (hemoCORM Limited, priority 2002, dated 2011)

Columns and labels:
[1] = test system: deoxymyoglobin (deoxy-Mb); assay: Detection of CO release: conversion of deoxymyoglobin to carbonmonoxy myoglobin (MbCO), spectrophotometric; type: physicochemical
Procedure: The release of CO from CORM-3 or dCOMR-3 was assessed spectrophotometrically by measuring the conversion of deoxymyoglobin (deoxy-Mb) to carbonmonoxy myoglobin (MbCO) as previously described. The amount of MbCO formed was quantified by measuring the absorbance at 540 nm (extinction coefficient=[…]). Myoglobin solutions (66 μmol/L final concentration) were prepared fresh by dissolving the protein in 0.04 M phosphate buffer (pH 6.8). Sodium dithionite (0.1%) was added to convert myoglobin to deoxy-Mb prior to each reading.
When CORM-3 was prepared in distilled water and then added to the phosphate buffer solution containing Mb, a spectrum characteristic of MbCO was rapidly detected (FIG. 1B).

[2] = test system: isolated hearts from male Lewis rats; assay: Ischaemia-reperfusion model in isolated Langendorff-perfused hearts; design: species or system rat
Procedure: Isolated hearts from male Lewis rats (300-350 g) were perfused according to the Langendorff technique as previously described by our group. Briefly, hearts were rapidly excised and perfused at constant flow (11 ml/min) with Krebs-Henseleit buffer (in mM: 119 NaCl, 4.7 KCl, 2.5 CaCl2, 1.66 MgSO4, 24.9 NaHCO3, 1.18 KH2PO4, 5.55 glucose, 2.00 sodium pyruvate, 0.5 EGTA) bubbled with 95% O2 and 5% CO2 at 37° C. (pH 7.4). Coronary perfusion pressure (CPP) was continuously measured by a pressure transducer (Grass Instruments, Astromed, RI, USA) connected to the aortic cannula. A latex balloon filled with saline was inserted into the left ventricle through the atrium and connected by a catheter to a second pressure transducer. The balloon was inflated to provide an initial end-diastolic pressure (EDP) of 10 mmHg. Both transducers were connected to a computer and data were acquired with BioPac™ instrumentation and analyzed with the accompanying AcqKnowledge™ software (BIOPAC System Inc.). Left ventricular developed pressure (LVDP), heart rate (HR), maximal contraction (+dP/dt) and relaxation (−dP/dt) rates, CPP and EDP were continuously recorded throughout the period of perfusion.
Isolated hearts were allowed to equilibrate at constant flow for 30 min and then made globally ischaemic by interrupting the buffer perfusion. Ischaemic hearts were kept at 37° C. in the water-jacketed chamber for 30 min and then reperfused for 60 min. All the hemodynamic parameters were continuously monitored throughout the experimental protocol as reported above. Krebs buffer was collected for 10 min from the pulmonary artery prior to the ischaemic event and in the last 10 min of reperfusion for creatine kinase (CK) analysis. At the end of reperfusion, hearts were stained to assess tissue viability using tetrazolium red. In additional experiments, hearts made ischaemic were infused for the first 10 min of reperfusion with CORM-3 or dCORM-3 (10 μM final concentration) via a syringe pump connected to the side arm of the aortic cannula. To assess a possible role of mitochondrial ATP-dependent potassium channels (KATP) in cardioprotection mediated by CORM-3, control hearts or hearts receiving CORM-3 were pre-treated for 10 min prior to ischaemia with […] (5-HD, 50 μM final concentration), a specific blocker of mitochondrial KATP.
Hearts from each experimental group (n=5) were stained for tissue viability at the end of the reperfusion period. Hearts were perfused through a side arm of the aortic cannula for 20 min with tetrazolium red (3% w/v) in Krebs Henseleit buffer at 37° C. The tetrazolium salt stains the viable myocardium brick red, whereas the infarcted tissue remains unstained and appears white. After staining, hearts were removed and stored in 2% formalin in the dark prior to analysis. Hearts were carefully cut into 2-mm thick sections, scanned into a computer using an AGFA Arcus® II scanner and the total ischaemic size was determined by volumetric analysis software (Scion Image®, Scion Corporation, MA, USA). Cardiac muscle damage was assessed by measuring the release of creatine kinase (CK) into the perfusate using a commercially available spectrophotometric assay kit (DG147-A) from Sigma Diagnostic (Poole, Dorset).

[3] = dissolved in DMSO; cited from earlier work
[4] = test system: deoxymyoglobin (deoxy-Mb); details: cited from earlier work
[5] = test system: pre-contracted aortic rings; details: cited from earlier work
[6] = 10 μM infused for first 10 min of reperfusion, 30 min ischaemia, 60 min reperfusion
[7] = at the end of reperfusion, 10 μM infused for first 10 min of reperfusion
[8] = before ischaemia, hearts later reperfused with CORM-3

## NCC(=O)O.[CH+]=O.[CH+]=O.[CH+]=O.[Cl][Ru] [CORM-3, tricarbonylchloro-(glycinato)ruthenium(II)]
[1]; CORM-3 prepared in distilled water, added to phosphate buffer containing Mb
  CO liberated per mole of compound: 1 mol
[1]; addition of 40 μM CORM-3 prepared in distilled water, myoglobin 66 μmol/L, 0.04 M phosphate buffer pH 6.8
  formation of MbCO: 36.4 ± 0.9 µM
[1]; dissolved in water, left 24 h at room temperature
  ability to liberate CO (conversion of Mb to MbCO) after standing in water: retained its full ability to liberate CO
[1]; prepared in Krebs-Henseleit buffer, over time
  stability / ability to release CO in Krebs-Henseleit buffer: gradually decomposed over time and lost its ability to release CO
[2]; [6]
  maximal rate of contraction (+dP/dt), after ischaemia-reperfusion: 3726±542 mmHg/s
  maximal rate of relaxation (−dP/dt), after ischaemia-reperfusion: 2207±258 mmHg/s
[2]; after 60 min reperfusion, 10 μM infused for first 10 min of reperfusion, 30 min global ischaemia
  increase in left ventricular-developed pressure (LVDP) compared to baseline: 44%
[2]; [7]
  increase in coronary perfusion pressure (CPP): 13±2.2 mmHg
  increase in end diastolic pressure (EDP): 3±1.8 mmHg
[2]; [8]
  maximal rate of contraction (+dP/dt), baseline: 2099±99 mmHg/s
  maximal rate of relaxation (−dP/dt), baseline: 1432±149 mmHg/s
[2]; buffer collected 10 min prior to ischaemia, hearts later reperfused with CORM-3
  creatine kinase (CK) activity in buffer, before ischaemia: 6.5±2.3 U/L
[2]; end of reperfusion, 10 μM infused for first 10 min of reperfusion
  infarct size (tetrazolium red staining): 2.3±0.6%
[2]; hearts pre-treated 10 min prior to ischaemia with 5-HD 50 μM, CORM-3 10 μM at reperfusion
  protective effects on myocardial contractility (LVDP, +dP/dt, −dP/dt) and on EDP and CPP increases, with 5-HD pre-treatment: totally abolished
[2]; last 10 min of reperfusion, 10 μM infused for first 10 min of reperfusion
  creatine kinase (CK) activity in buffer, after reperfusion: 19.9±5.3 U/L

## [C-]#[O+].[C-]#[O+].[C-]#[O+].[C-]#[O+].[C-]#[O+].[C-]#[O+].[Cl][Ru][Cl].[Cl][Ru][Cl] [[Ru(CO)3Cl2]2, Tricarbonyldichloro ruthenium(II) dimer]
[3]
  CO liberation on dissolution: CO is liberated into solution

## [Fe(SPh)2(2,2′-bipyridine)(CO)2]
[4]
  release of CO to myoglobin in solution: not to release CO to myoglobin in solution
[5]
  dilatation of pre-contracted aortic rings: capable of promoting dilatation of pre-contracted aortic rings
